According to the NIST ThermoML archive (doi:10.1021/je800157v):

Legend:
[1] = 101 kPa, Liquid
[2] = xn = mol fraction of the nth substance listed; conditions: 101 kPa, Liquid

c1ccccc1 [benzene]
[1]
Conditions | mass density [kg/m3]
288.15 K | 884.25
293.15 K | 878.92
298.15 K | 873.58
303.15 K | 868.23
308.15 K | 862.87
313.15 K | 857.5

CCC(C)O (stereo not given) [butan-2-ol] + ClC(Cl)Cl
[2], x1 = 1
Conditions | mass density [kg/m3]
288.15 K | 810.64
293.15 K | 806.59
298.15 K | 802.47
303.15 K | 798.27
308.15 K | 793.97
313.15 K | 789.59

ClC(Cl)Cl [trichloromethane]
[1]
Conditions | mass density [kg/m3]
288.15 K | 1498.08
293.15 K | 1488.64
298.15 K | 1479.15
303.15 K | 1469.61
308.15 K | 1460.03
313.15 K | 1450.41

CCC(C)O (stereo not given) [butan-2-ol]
[1]
Conditions | mass density [kg/m3]
288.15 K | 810.64
293.15 K | 806.59
298.15 K | 802.47
303.15 K | 798.27
308.15 K | 793.97
313.15 K | 789.59

c1ccccc1 [benzene] + CCC(C)O
[2], x2 = 0
Conditions | mass density [kg/m3]
288.15 K | 884.25
293.15 K | 878.92
298.15 K | 873.58
303.15 K | 868.23
308.15 K | 862.87
313.15 K | 857.5
